Experiment [1] deals with IL-6. Put plainly: IL-6 secretion by PBMC (ELISA). As to conditions: 24 hours. Type of experiment: cell-based, human. As to the method:
(§1) Primary cultures of human intestinal microvascular endothelial cells (HIMEC) isolated from normal jejunal mucosa/submucosal tissue were prepared as described (Strong et al., Gastroenterology 114:1244-1256 (1998)). The HIMEC were cultured in fibronectin-coated plasticware in MCDB medium (Sigma) supplemented with 20% FBS, 90 μg/ml heparin and 50 μg/ml endothelial cell growth factor (Sigma). T-24 cells (ATCC Accession No. HTB-4) were cultured in M199 medium supplemented with 10% FBS. PBMC were purified by Ficoll-Paque gradient as described (Current Protocols in Immunology, pp 7.1.1-7.1.2). Vero cells (ATCC Accession No. CCL-81) were grown in RPMI medium with 5% Nu serum and infected with the Silvio X-10/4 of T. cruzi as described previously (Chuenkova et al., J. Exp. Med. 181:1693-1703 (1995)).
Endothelial cells and T-24 cells were plated on 24-well plates at a density of 1×10^3 cells/well, while peripheral blood mononuclear cells (PBMC) were plated in the similar wells at 1×10^6/well. Triplicat cultures of cells were incubated test agents for a predetermined amount of time. […] Cytokines and chemokines released in the culture supernatants were measured by ELISA assay following the instructions of the manufacturer (Endogen). The cytokines tested were IL-1β, IL-4, IL-8, […], IL-12, IFN-γ, TNF-α, and the chemokines RANTES and MCP-1. Negative controls were cells incubated in medium containing polymixin B at 10 μg/ml, and positive controls were cells incubated with bacterial LPS at the low ng/ml range (for PBMC or HIMEC) or in the μg/ml range for carcinoma T-24 cells. In some experiments, IL-1β or TNFα were used as positive control for cytokine release.
TR peptides (Table 2) were synthesized at the Tufts Synthesis Facility (Boston, Mass.). Each peptide was purified by HPLC, and the number of amino acids and molecular weight of each peptide verified by mass spectrometry. Peptides were dissolved in growth medium (10% FCS in RPMI) and added at various concentrations to 1×10^6 PBMC/well in 24-well plates. After 24 hours, IL-6 was assayed by ELISA in the conditioned supernatants.
In general terms: In an ELISA, binding on a coated surface is turned into a signal by an enzyme label.

Experiment [2] concerns PC12 cells or Schwann cells. Put plainly: Inhibition of apoptosis of PC12 cells or Schwann cells by synthetic peptides. Type of experiment: cell-based.
The subject of experiment [3] is PC12 cells. Type of experiment: cell-based. The settings on record: serum-free RPMI/0.2% BSA, collagen coated dishes, 16-17 hours.
The subject of experiment [4] is PC12 cells. Put plainly: Protection of PC12 cells from apoptosis induced by trophic factor withdrawal (DAPI, TUNEL). Type of experiment: cell-based. As to conditions: serum-free RPMI-1640/0.2% BSA, 17 hours, DAPI or TUNEL. From the text: PC12 cells were obtained from ATCC (Manassas, Va. (Accession No. CRL-1721)) and cultured on collagen-coated dishes in RPMI 1640 supplemented with 10% horse serum and 5% fetal bovine serum (Greene, L., and Tishler, A., Proc. Natl. Acad. Sci. USA, 73:2424-2428 (1976)). For differentiation and survival experiments, cells were washed three times in serum-free RPMI/0.2% BSA, plated in the same medium in collagen-coated plastic dishes at 2×10^5/ml, without and with growth factors, TS, recombinant proteins, synthetic peptides, for the time and concentrations indicated in the Figures.
Cell staining with 4,6-diamino-2-phenylindole (DAPI). Cells were fixed with 4% formaldehyde in PBS for 5 minutes, washed with PBS, stained with 10 μg/ml DAPI (Sigma) for 2 minutes, washed with PBS, and visualized under UV light using a fluorescent microscope. About 300-400 cells were examined under the microscope to determine the percentage of apoptotic cells.
Cell DNA nick end labeling (TUNEL) (Gavrieli, Y. et al., J. Cell. Biol., 119:493-501 (1992)) assay was performed using a kit purchased from Boehringer Mannheim as described by the manufacturer.
Protection against apoptosis of PC12 cells in serum-free medium containing a test agent (agent N) (e.g., protection induced by TS, TS fragments, NGF or other growth factors), was calculated by the formula: 100%−[(apoptosis(%) of cells kept in RPMI containing test agent N÷apoptosis (%) of cells kept in RPMI)×100%]. Testing the effect of Wortmannin (Sigma) and LY294002 (Sigma) in inhibiting the neuroprotection of TS was performed following the protocol described by others (Yao, R., and Cooper, G., Science, 267:2003-2006 (1995); D'Mello, et al., J. Neurosci., 17:1548-1560 (1997)). In brief, PC12 cells were switched from growth medium to RPMI without and with TS or various other growth factors. After 24 hours, Wortmannin and LY294002 were added to the cultures. After another 24 hours, cells were examined for apoptosis by the DAPI assay, as above.

In experiment [5] the test system is IL-6. Description: IL-6 secretion by normal human neutrophils. Type of experiment: cell-based.
Experiment [6] relates to IL-6. Description: IL-6 secretion by HIMEC (ELISA). Type of experiment: cell-based, human. The settings on record: 24 hours. As to the method: as §1
Endothelial cells and T-24 cells were plated on 24-well plates at a density of 1×10^3 cells/well, while peripheral blood mononuclear cells (PBMC) were plated in the similar wells at 1×10^6/well. Triplicat cultures of cells were incubated test agents for a predetermined amount of time. […] Cytokines and chemokines released in the culture supernatants were measured by ELISA assay following the instructions of the manufacturer (Endogen). The cytokines tested were IL-1β, IL-4, IL-8, IL-1, IL-12, IFN-γ, TNF-α, and the chemokines RANTES and MCP-1. […]

The subject of a further experiment is PC12^TrkA cells. Put plainly: Survival of PC12^TrkA cells in serum-free medium (MTT, DAPI). The settings on record: peptides 10 μM, PDNF 500 ng/ml, NGF 30 ng/ml, 48 hours to 5 days. The class given is cell-based. As to the method:
PC12^nnr5 and PC12^TrkA cells were grown in RPMI with 10% FCS and 5% horse serum as described earlier (Green et al., J. Cell Biol. 102:830-843 (1986); Chuenkova and Pereira, Mol. Biol. Cell 11: 1487-1498 (2000)). Two approaches were used to study neurite extension: 1) Plating cells (1×10^5 cells/ml) on plastic wells (LABTECH 16-well slides, Nalge Nunc International, Naperville, Ill.) coated with synthetic peptides (100 μg/ml water, 4° C., overnight) or rat tail collagen (1 mg/ml PBS, 4° C., overnight). 2) Adding peptides in solution to cells plated on uncoated substratum. Cells were grown in 1% FCS-containing RPMI for 72 hours, and reacted with 0.5 mg/ml MTT (3-[4,5-dimethylthiazol-2-yl]-2,5-diphenyltetrazolium bromide) (SIGMA, St. Louis, Mo.) in serum-free medium for 1 hour at 37° C. Light microscopy was used to visualize viable cells (i.e., containing reduced insoluble formazan) with or without extended neurites (>5 μm in length). Cell viability was also determined using the CELLTITER 96 assay (Promega, Madison, Wis.) as follows: Cells, plated at 2×10^5/ml, were treated with peptides in serum-free medium for different times and exposed to CELLTITER 96 Aqueous One Solution for 1 hour at 37° C. 2) Apoptotic cells were identified by staining with DAPI (250 ng/ml) (SIGMA) 48 hours after cells were exposed to serum-free medium with or without additives in solution, as described earlier (Chuenkova and Pereira, Mol. Biol. Cell 11:1487-1498 (2000)). […]

A further experiment relates to Erk1/2. Description: Erk1/2 phosphorylation in PC12 cells. The class given is cell-based. As to conditions: 5 minutes; control peptides 10 μM. The protocol: Activation state of TrkA, Erk1/2 and Akt kinases and transcription factor CREB was analyzed by assessing phosphorylation by Western blot with appropriate phospho-specific antibodies. For this, cells were plated in complete medium at a density of 3×10^5 cells/ml overnight on 6-well plates (BECTON DICKINSON LABWARE, Franklin Lakes, N.J.). The medium was changed to serum-free medium and the cells cultured for an additional 24 hours to reduce background phosphorylation. […] Antibody reaction was visualized by horseradish peroxidase (HRP)-conjugated secondary antibody and enhanced chemiluminescence kit (ECL). Some blots were stripped in appropriate buffer (50 mM Tris HCl, pH 7.8, 2% SDS, 1% β-mercaptoethanol) at 50° C. for 60 minutes and re-probed with p42/44MAPK, Akt or CREB antibody to ensure equal loading of proteins. For immunoprecipitation experiments, cell lysates were pre-adsorbed on protein G-Sepharose for 1 hour at 4° C. and after brief centrifugation supernatants were incubated with anti-TrkA antibody for 24 hours at 4° C. with gentle rocking. Formed immunocomplexes were captured on protein G-Sepharose, eluted with SDS-PAGE sample buffer and analyzed by immunoblotting with antibody against phospho-TrkA receptor.

Experiment [7] has as its system primary cultures of rat Schwann cells. The settings on record: cited from earlier work.

We go through 14 substances from patent publication US20090117593A1, “T. Cruzi-derived neurotrophic agents and methods of use therefor” (Tufts University, priority 2006, published 2009).

“Also recorded” adds a separate entry of the source. Some results are limits rather than exact numbers.

Turning to DSSAHGAPSTPA [peptide TR1], the “IL-6 secretion by PBMC” value in the experiment with IL-6 [1] is “less active”.
For DSSAHGAPSTPADSSAHGTPSTPV [TR2], the “IL-6 secretion by PBMC” value in the experiment on IL-6 [1] is listed as “less active”.
Same read-out and setting: with “DSSAHGAPSTPADSSAHGTPSTPVDSSAHGTPSTPA [TR3]” the entry was “less active”; with “DSSAHGAPSTPADSSAHGTPSTPVDSSAHGTPSTPADSSAHSTPSTPA [TR4]”, “active in promoting IL-6 release”.
On the same count and under the same terms, next, “DSSAHGAPSTPADSSAHGTPSTPVDSSAHGTPSTPADSSAHSTPSTPADSSAHSTPSTPA [TR5]”: “active in promoting IL-6 release”.
As for GNASQNYWEDAYRC [CYN2], in [2], the “effect of PI-3 kinase inhibitor LY294002 on the apoptosis suppressing effect of the peptide” value (“effect of PI-3 kinase inhibitor LY294002” for short) is “inhibited by the PI-3 kinase inhibitor LY294002” and the “suppression of apoptosis of PC12 cells or Schwann cells” value (shortened to “suppression”) is listed as “suppressed apoptosis but was less active”.
For the substance “QPLRRQRVVVVPLSPRLVLLAFCRQRLPLKRMGGSYRCVNASTAN [peptide C44]”, the “neurite outgrowth in PC12 cells” value in the experiment with PC12 cells [3] is recorded as “had direct neurotrophic activity; also recorded: induce dose dependent outgrowth of neurites”. In addition, the “protection of PC12 cells from apoptosis induced by trophic factor withdrawal” value (from here on “protection of PC12 cells”) with PC12 cells [4] is recorded as “protected PC12 cells from apoptosis”. In [2], the “effect of PI-3 kinase inhibitor LY294002” value is “inhibited by the PI-3 kinase inhibitor LY294002” and the “suppression” value is on record as “potent suppressors of apoptosis”.
For the substance RQRLPKRMGGSYRC [peptide C14], the “neurite outgrowth in PC12 cells” value with PC12 cells [3] is “had direct neurotrophic activity; also recorded: induce dose dependent outgrowth of neurites”. The “protection of PC12 cells” value with PC12 cells [4] is “protected PC12 cells from apoptosis”. Moreover, in experiment [2], the “effect of PI-3 kinase inhibitor LY294002” value is reported as “inhibited by the PI-3 kinase inhibitor LY294002” and the “suppression” value was “potent suppressors of apoptosis”.
In the case of RQRLPKRMGGSYRCVNASTAH [CFN1], the “neurite outgrowth in PC12 cells” value with PC12 cells [3] was “had direct neurotrophic activity”. Further, in [2], the “effect of PI-3 kinase inhibitor LY294002” value is “inhibited by the PI-3 kinase inhibitor LY294002” and the “suppression” value was “potent suppressors of apoptosis”.
As to TNF-α, in the experiment with IL-6 [5], the “IL-6 production by normal human neutrophils” value is “did elicit secretion of IL-6”.
Turning to “VCNA: neuraminidase from Vibrio cholera [reference compound]”, the “neurite outgrowth in PC12 cells” value in the experiment with PC12 cells [3] was “did not induce neurite outgrowth; also recorded: does not induce neurite outgrowth”. For the same substance, in the experiment with PC12 cells [4], the “protection of PC12 cells” value is “did not”. Moreover, the “IL-6 secretion by HIMEC” value in the experiment on IL-6 [6] is listed as “did not stimulate detectable IL-6 secretion”.
For the substance VNASTAN [peptide CYFN], in [2], the “effect of PI-3 kinase inhibitor LY294002” value is listed as “inhibited by the PI-3 kinase inhibitor LY294002” and the “suppression” value is recorded as “did not inhibit apoptosis”. In the experiment on PC12^TrkA cells, the “survival of PC12^TrkA cells in serum-free medium” value was “did not significantly promoted cell survival”. Moreover, the “Erk1/2 phosphorylation in PC12 cells” value in the experiment on Erk1/2 was “did not activate Erk”.
Regarding YSVDDGETWE [peptide B2], the “neurite outgrowth in PC12 cells” value in the experiment with PC12 cells [3] was “did not induce neurite outgrowth; also recorded: did not promote neurite outgrowth”. Further, the “suppression” value in experiment [2] is reported as “did not inhibit apoptosis”. Also, the “survival of PC12^TrkA cells in serum-free medium” value with PC12^TrkA cells (listed as BR) was “inactive; also recorded: did not significantly promoted cell survival”.
Consider lysophosphatidic acid, for which the “dose reported to be active as Schwann cell survival factor” value in experiment [7] is ≥ 10 nM.
